Azo = N-terminal azobenzene
What was measured:
Format in all cases: physicochemical
[1] = Hydrogelation conditions: lowest concentration to gel water at specific pH; design: key to pH (hydrogelation condition): —: unable to form hydrogel under tested conditions; settings: for pH (to form a hydrogel): azobenzene substituted bio-active short peptides
Method: Preparation of Hydrogels. A homogeneous solution of azobenzene-substituted short peptides was prepared in a glass vial via pH adjustment and heating. Upon cooling to room temperature, a hydrogel formed for Azo-Gln-Phe-Ala; Azo-Lys-Phe-Ala; Azo-Leu- Phe-Ala; Azo-D-Lys-D-Phe-D-Ala; and Azo-Arg-Phe-Ala. However, Azo-Lys-D-Phe-D-Ala and Azo-D-Lys-Phe-Ala, sonification was necessary to facilitate the hydrogelation. Hydrogels of Azo-Ser-Phe-Ala; Azo-Gln-Tyr-Ala; Azo-Glu-Tyr-Ala; and Azo-Glu-Phe-Ala were prepared by acidifying the basic solution to the pH shown in Table 1.
Test on pH and salt effects on gelation properties. pH effect: Azo-dipeptides were mixed with a small quality of water and the mixture were adjusted to the desired pH with 1M HCl or NaOH, then heated to about 80-90° C. to obtain a clear solution. A yellow hydrogel formed upon cooling to room temperature. The lowest concentration for hydrogelation at a specific pH was obtained by successive dilution of the hydrogel using water, at the same pH that of the hydrogelation, to the point when hydrogel could not form.

[2] = Salt effect on gelation properties; settings: buffer of higher concentration of Na2HPO4/NaH2PO4; FIG. 1B
Method: Salt effect: Buffers at different pHs (5 and 6) and different concentrations (0.05M, 0.1M, 0.2M and 0.5M) were prepared by mixing Na2HPO4 and NaH2PO4 with different concentration. The azo-dipeptides were mixed with a small quality of buffer and heated to about 80-90° C. to obtain a clear solution. Yellow hydrogels formed upon cooling to room temperature. The lowest concentration for hydrogelation at specific pH was obtained by successive dilution of the hydrogel by the buffer with the same concentration of salt to the point when the hydrogel no longer formed.

[3] = Temperature for gel to solution phase transition; settings: for T (° C.): temperature for gel to solution phase transition: azobenzene substituted tripeptide hydrogels
[4] = Photo-response tests on the hydrogels (UV irradiation); design: key to tinit(min): time needed for initial collapse of the gel upon UV irradiation: —: no obvious change upon UV irradiation; settings: for photo-response of the gel upon UV irradiation (in words): Azo-Glu-Phe-Ala: even after 5 hours of UV-irradiation; for tinit(min): time needed for initial collapse of the gel upon UV irradiation: high pressure mercury lamp (500 w); for total irradiation time needed for the gel to begin to collapse (tinit): UV irradiation (365 nm), Azo-Lys-Phe-Ala: partial phase transition
Method: (§1) Photo-response tests on the hydrogels. The light source for the UV irradiation was a high pressure mercury lamp (500 w) with a filter to cut off visible light. A control experiment was performed in parallel using the same hydrogel in a tin foil covered glass vial to exclude the possibility of response induced by any external stimulus other than light irradiation. The photo-response of the hydrogels was confirmed by observation of the gel to solution phase change of the sample under irradiation, but not on the sample of negative control. In one example, ^1H NMR of Azo-Lys-D-Ala-D-Ala in d-MeOH was used to confirm that after UV irradiation for 2 minutes 11% of the compound was in the cis-configuration, and after 10 minutes, 51% was in the cis-configuration.

[5] = Rheology test on the hydrogel before and after UV irradiation
Method: Rheology test on the hydrogel before and after UV irradiation. All rheological measurements were performed using an ARES-G2 Rheometer with a cone and a plate (25 mm diameter plate and 0.0999 rad cone angle), and a gap opening between the cone and the plate of 0.0282 mm. The dynamic strain sweep test was carried out at 6.282 rad/s, and then dynamic frequency sweep test was investigated at critical strain, which was determined from storage-strain profile.

[6] = 1H NMR determination of cis-configuration after UV irradiation; settings: 1H NMR in d-MeOH
Method: as §1

[7] = azobenzene substituted dipeptides
[8] = azobenzene substituted tripeptides, pH at which the lowest gelling concentration applies

## Azo-Glu-Ala
[1]; [7]
  pH (hydrogelation condition): 2.4

## Azo-Phe-Ser
[1]; [7]
  pH (hydrogelation condition): 2.0

## Azo-Lys-Ala
[1]; [7]
  pH (hydrogelation condition): —

## Azo-Glu-Tyr
[2]
  salt effect on concentration required for hydrogelation: almost negligible
[1]; [7]
  pH (hydrogelation condition): 4.8

## Azo-Glu-Phe-Ala
[3]
  T (° C.): temperature for gel to solution phase transition: 85 °C
[1]; [8]
  pH (hydrogelation condition): 4.7
[4]
  photo-response of the gel upon UV irradiation (in words): No photo-response was observed
  tinit(min): time needed for initial collapse of the gel upon UV irradiation: —^d

## Azo-Phe-Tyr
[1]; [7]
  pH (hydrogelation condition): 8.6

## Azo-Tyr-Lys
[1]; [7]
  pH (hydrogelation condition): 2.2

## Azo-Arg-Phe
[1]; [7]
  pH (hydrogelation condition): —

## Azo-Arg-Gln
[1]; [7]
  pH (hydrogelation condition): —

## Azo-Ala-Tyr
[2]
  salt effect on concentration required for hydrogelation: decreased the concentration required for hydrogelation
[1]; [7]
  pH (hydrogelation condition): 5.1

## Azo-Lys-D-Phe-D-Ala
[3]
  temperature at which the gel turned into a solution upon heating: 42 °C
  T (° C.): temperature for gel to solution phase transition: 42 °C
[1]; [8]
  pH (hydrogelation condition): 1.2
[5]; dynamic frequency sweep test, FIG. 4B
  decrease in the storage modulus of the hydrogel after UV irradiation: greater than 100 times
[5]; dynamic strain sweep test, FIG. 4A
  storage modulus of the hydrogel before UV irradiation relative to after UV irradiation: 70 times
[4]
  photo-response of the gel upon UV irradiation (in words): fast responses
  total irradiation time needed for the gel to begin to collapse (tinit): 7 min
  tinit(min): time needed for initial collapse of the gel upon UV irradiation: 7 min

## Azo-IKVAV
[1]
  pH (to form a hydrogel): 4.5

## Azo-Arg-Phe-Ala
[3]
  T (° C.): temperature for gel to solution phase transition: 47 °C
[1]; [8]
  pH (hydrogelation condition): 1.6
[4]
  tinit(min): time needed for initial collapse of the gel upon UV irradiation: 8 min

## Azo-Glu-Phe
[1]; [7]
  pH (hydrogelation condition): 2.5

## Azo-Ser-Phe
[1]; [7]
  pH (hydrogelation condition): 5.7

## Azo-Leu-Phe-Ala
[3]
  T (° C.): temperature for gel to solution phase transition: 71 °C
[1]; [8]
  pH (hydrogelation condition): 8.6
[4]
  tinit(min): time needed for initial collapse of the gel upon UV irradiation: 15 min

## Azo-Glu-Tyr-Ala
[3]
  T (° C.): temperature for gel to solution phase transition: 69 °C
[1]; [8]
  pH (hydrogelation condition): 3.0
[4]
  tinit(min): time needed for initial collapse of the gel upon UV irradiation: —

## Azo-Ser-Phe-Ala
[3]
  T (° C.): temperature for gel to solution phase transition: 54 °C
[1]; [8]
  pH (hydrogelation condition): 3.7
[4]
  tinit(min): time needed for initial collapse of the gel upon UV irradiation: —^d

## Azo-Phe-Phe
[1]; [7]
  pH (hydrogelation condition): 9.7

## Azo-Tyr-Ala
[1]; [7]
  pH (hydrogelation condition): 3.0

## Azo-D-Lys-Phe-Ala
[3]
  T (° C.): temperature for gel to solution phase transition: 39 °C
[1]; [8]
  pH (hydrogelation condition): 1.4
[4]
  tinit(min): time needed for initial collapse of the gel upon UV irradiation: 4 min

## Azo-LGAGGAG (Azo-LGAGGAG-OH)
[1]
  pH (to form a hydrogel): 1.6

## Azo-YSV
[1]
  pH (to form a hydrogel): 1.8

## Azo-VYGGG
[1]
  pH (to form a hydrogel): 2.8

## Azo-Gln-Gln
[1]; [7]
  pH (hydrogelation condition): —^b

## Azo-GAGAS
[1]
  pH (to form a hydrogel): 3.9

## Azo-Gln-Ala
[1]; [7]
  pH (hydrogelation condition): 2.5

## Azo-Ser-Ala
[1]; [7]
  pH (hydrogelation condition): —

## Azo-Gln-Tyr-Ala
[3]
  T (° C.): temperature for gel to solution phase transition: 81 °C
[1]; [8]
  pH (hydrogelation condition): 3.1
[4]
  tinit(min): time needed for initial collapse of the gel upon UV irradiation: —

## Azo-Phe-Glu
[1]; [7]
  pH (hydrogelation condition): 2.1

## Azo-Phe-Ala
[1]; [7]
  pH (hydrogelation condition): 7.8

## Azo-Gln-Phe-Ala
[3]
  T (° C.): temperature for gel to solution phase transition: 65 °C
[1]; [8]
  pH (hydrogelation condition): 7.8
[4]
  total irradiation time needed for the gel to begin to collapse (tinit): ≤ 3 min
  tinit(min): time needed for initial collapse of the gel upon UV irradiation: 3 min
[4]; UV light (365 nm), without external heating
  time to complete conversion of the hydrogel into a homogeneous non-viscous solution: under 20 minutes

## Azo-Lys-D-Ala-D-Ala
[6]; after UV irradiation for 2 minutes
  compound in the cis-configuration: 11%
[6]; after UV irradiation for 10 minutes
  compound in the cis-configuration: 51%

## Azo-Tyr-Tyr
[2]
  salt effect on concentration required for hydrogelation: decreased the concentration required for hydrogelation
[1]; [7]
  pH (hydrogelation condition): 4.8

## Azo-Gly-Phe-Ala
[3]
  T (° C.): temperature for gel to solution phase transition: 48 °C
[1]; [8]
  pH (hydrogelation condition): 7.5
[4]
  photo-response of the gel upon UV irradiation (in words): fast responses
  total irradiation time needed for the gel to begin to collapse (tinit): 5 min
  tinit(min): time needed for initial collapse of the gel upon UV irradiation: 5 min

## Azo-D-Lys-D-Phe-D-Ala
[3]
  T (° C.): temperature for gel to solution phase transition: 60 °C
[1]; [8]
  pH (hydrogelation condition): 1.6
[4]
  tinit(min): time needed for initial collapse of the gel upon UV irradiation: 15 min

## Azo-Ala-Phe
[1]; [7]
  pH (hydrogelation condition): 9.5

## Azo-Arg-Lys
[1]; [7]
  pH (hydrogelation condition): —

## Azo-Arg-Ala
[1]; [7]
  pH (hydrogelation condition): —

## Azo-Gln-Tyr
[1]; [7]
  pH (hydrogelation condition): 4.8

## Azo-Glu-Lys
[1]; [7]
  pH (hydrogelation condition): —

## Azo-Lys-Phe-Ala
[3]
  T (° C.): temperature for gel to solution phase transition: 59 °C
[1]; [8]
  pH (hydrogelation condition): 1.6
[4]
  total irradiation time needed for the gel to begin to collapse (tinit): 30 min
  tinit(min): time needed for initial collapse of the gel upon UV irradiation: 30 min

Reference: US20130005833A1, “PHOTO-RESPONSIVE SUPRAMOLECULAR HYDROGELS” (priority 2011, published 2013)
